In ChEMBL document CHEMBL4004876, “Preliminary SAR on indole-3-carbinol and related fragments reveals a novel anticancer lead compound against resistant glioblastoma cells” (Bioorg Med Chem Lett, 2017):

Columns and labels:
[1] = Cytotoxicity against human IN1760 cells assessed as decrease in cell proliferation after 72 hrs by SRB assay; type: functional, cell-based; details: IN1760, 72 h
[2] = Cytotoxicity against human IN1528 cells assessed as decrease in cell proliferation after 72 hrs by SRB assay; type: functional, cell-based; details: IN1528, 72 h
[3] = Cytotoxicity against human U87 cells assessed as decrease in cell proliferation after 72 hrs by SRB assay; type: functional, cell-based, U-87MG ATCC; details: U-87 MG
[4] = Cytotoxicity against human IN1472 cells assessed as decrease in cell proliferation after 72 hrs by SRB assay; type: functional, cell-based; details: IN1472, 72 h
U-251 = assay: Cytotoxicity against human U251 cells assessed as decrease in cell proliferation after 72 hrs by SRB assay; type: functional, cell-based; details: U-251, 72 h

Row | Compound | EC50 [1] | EC50 [2] | EC50 [3] | EC50 [4] | EC50 (U-251)
1 | OCc1c(-c2ccccc2)[nH]c2ccccc12 [(2-PHENYL-1H-INDOL-3-YL)METHANOL] | 1430 µM | 10 µM | 30 µM | 480 µM | 130 µM
2 | OCCc1c(-c2ccccc2)[nH]c2ccccc12 | 330 µM | 4 µM | 110 µM | 350 µM | 250 µM
3 | OCc1c[nH]c2ccccc12 [INDOLE-3-CARBINOL] | 1580 µM | 119 µM | 290 µM | 950 µM | 390 µM
4 | CC(=O)n1cc(CO)c2ccccc21 | > 10000 µM | 5820 µM | – | – | 1760 µM
5 | CC(=O)n1c(-c2ccccc2)c(CO)c2ccccc21 | > 10000 µM | > 10000 µM | – | – | 600 µM
6 | c1ccc(-c2[nH]c3ccccc3c2Cc2c(-c3ccccc3)[nH]c3ccccc23)cc1 | 50 µM | 270 µM | – | – | 50 µM
7 | Cc1ccc(S(=O)(=O)n2cc(CO)c3ccccc32)cc1 | 650 µM | 440 µM | – | – | 140 µM
8 | OCc1csc2ccccc12 | 1080 µM | 3990 µM | – | – | 1240 µM
9 | OCCc1c[nH]c2ccccc12 [TRYPTOPHOL] | 4570 µM | 1740 µM | 580 µM | 1950 µM | 1220 µM
10 | c1ccc2c(Cc3c[nH]c4ccccc34)c[nH]c2c1 [ARUNDINE] | 230 µM | 440 µM | – | – | 280 µM
